The target in assay [1] is T1, uPAR-expressing HEC-265 human endometrial adenocarcinoma cells (Homo sapiens, UniProt Q03405).
T1 construct: Cell surface uPAR-expressing HEC-265 human endometrial adenocarcinoma cells; host or cells: HEC-265
Description: Competitive FACS binding assay. The settings on record: pIC50 category of FACS binding. Put shortly: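 HEC-265 cells incubated 1 h at 4 °C with 10 nM biotinylated uPAR peptide tracer plus increasing test compound, then stained with APC-streptavidin on ice. Median APC fluorescence by flow cytometry; 4PL fit gives pIC50.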
(In general: Flow cytometry measures light scatter and fluorescence of single cells or particles in a stream.)

Assay [2] addresses T2, human uPAR (uPAR-Fc) (Homo sapiens, UniProt Q03405).
T2 construct: comprising amino acids Leu23-Arg303 according to UniProt entry Q03405.1; purchased R&D Systems 10378-UK-100
Description: Surface plasmon resonance (SPR) assay, single cycle kinetics. Format: binding. As to conditions: pKD category for uPAR SPR activity assay, uPAR-Fc on Protein A-Chip, 25°C, read-out: pKD CAT (converted). The procedure, abridged:
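uPAR-Fc (Leu23-Arg303 extracellular domains, human IgG1 Fc) captured on Protein A chip to ~2000 RU; single-cycle kinetics at 25°C in HEPES running buffer pH 7.4 with 0.1% DMSO. KD from double-referenced sensorgrams fitted to 1:1 Langmuir model, reported as pKD.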
For orientation: Surface plasmon resonance follows binding to a sensor surface in real time, without labels.

This is an account of results in EP4610269A1, “UROKINASE PLASMINOGEN ACTIVATOR SURFACE RECEPTOR (UPAR) LIGANDS FOR DIAGNOSTIC OR THERAPEUTIC USE” (3B Pharmaceuticals GmbH, priority 2024, dated 2025).

Structures are written as SMILES. pIC50: −log10 of the molar value. Where two headings read alike, the source gives them in different places. Where a SMILES comes first, the peptide text is derived from it. Bridges are numbered along the chain shown (N, C = ends). [ ]: non-standard residue; d: D form. The star is where a group is joined. DOTA = O=C(O)CN1CCN(CC(=O)O)CCN(CC(=O)*)CCN(CC(=O)O)CC1; Tyr(3-Cl) = N[C@@H](Cc1ccc(O)c(Cl)c1)C(=O)O; Phe(4-CN) = N#Cc1ccc(C[C@H](N)C(=O)O)cc1; Pro(cis-4-F) = O=C(O)[C@@H]1C[C@H](F)CN1; Pro(4R-NH2) = N[C@H]1CN[C@H](C(=O)O)C1; cisHyp = O=C(O)[C@@H]1C[C@H](O)CN1; Hyp = O=C(O)[C@@H]1C[C@@H](O)CN1; Pentanoyl(4-Me) = CC(C)CCC(=O)*; Cit = NC(=O)NCCC[C@H](N)C(=O)O; αMeL = CC(C)C[C@](C)(N)C(=O)O; Butoxycarbonyl = CCCCOC(=O)*; Phg = N[C@H](C(=O)O)c1ccccc1; hSer = N[C@@H](CCO)C(=O)O; Api = NC1(C(=O)O)CCNCC1; Nva = CCC[C@H](N)C(=O)O; Pentanoyl = CCCCC(=O)*; Ahx = NCCCCCC(=O)O A value given as a limit tells only on which side of the number the result lay.

Usually pIC50 stands for −log10 of the IC50, conventionally taken in molar units. A lower pIC50 goes with a large IC50.

T1 sequence (Q03405 23-335): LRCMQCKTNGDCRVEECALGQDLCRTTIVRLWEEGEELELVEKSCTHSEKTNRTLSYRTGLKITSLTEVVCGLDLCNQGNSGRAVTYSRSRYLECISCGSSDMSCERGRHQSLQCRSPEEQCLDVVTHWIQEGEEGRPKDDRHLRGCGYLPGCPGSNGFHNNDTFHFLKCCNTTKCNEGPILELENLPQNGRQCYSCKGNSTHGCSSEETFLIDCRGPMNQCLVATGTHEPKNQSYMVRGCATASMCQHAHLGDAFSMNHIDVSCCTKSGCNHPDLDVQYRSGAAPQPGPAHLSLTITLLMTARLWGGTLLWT
T2 sequence (Q03405 23-303): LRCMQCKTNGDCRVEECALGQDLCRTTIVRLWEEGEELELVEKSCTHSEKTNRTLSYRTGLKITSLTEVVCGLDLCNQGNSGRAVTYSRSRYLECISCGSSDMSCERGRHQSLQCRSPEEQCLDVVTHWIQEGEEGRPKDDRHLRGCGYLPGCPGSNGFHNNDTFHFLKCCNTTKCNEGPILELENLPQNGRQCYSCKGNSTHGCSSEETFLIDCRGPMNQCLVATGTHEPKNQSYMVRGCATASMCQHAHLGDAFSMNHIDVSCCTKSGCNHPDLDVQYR

For `CCCCC(=O)N[C@H]1CSSC[C@@H](C(N)=O)NC(=O)[C@H](CCC)NC(=O)[C@H]([C@@H](C)CC)NC(=O)[C@@H]2C[C@@H](O)CN2C(=O)[C@@H]2CCCN2C(=O)[C@H](Cc2ccccc2)NC(=O)[C@H](Cc2ccc(O)cc2)NC(=O)[C@H](CCC(N)=O)NC(=O)C2(CCNCC2)NC1=O` [UPAR-186, Pent-[Cys-Apc-Gln-Tyr-Phe-Pro-Hyp-Ile-Nva-Cys]-NH2] (Pentanoyl-C[Api]QYFP[Hyp]I[Nva]C-NH2; disulfide 1-10), the pIC50 in assay [1] is at least 8.00. In assay [2], the Kd is below 0.00158 µM.

Turning to `CCCCOC(=O)N[C@H]1CSSC[C@@H](C(N)=O)NC(=O)[C@H](CCC)NC(=O)[C@H]([C@@H](C)CC)NC(=O)[C@@H]2C[C@@H](O)CN2C(=O)[C@@H]2C[C@H](F)CN2C(=O)[C@H](Cc2ccc(C#N)cc2)NC(=O)[C@H](Cc2ccc(O)cc2)NC(=O)[C@H](CCCCNC(=O)CN2CCN(CC(=O)O)CCN(CC(=O)O)CCN(CC(=O)O)CC2)NC(=O)[C@H]([C@@H](C)O)NC1=O` [UPAR-378, Butoc-[Cys-Thr-Lys(DOTA)-Tyr-Pnf-4Cfp-Hyp-Ile-Nva-Cys]-NH2] (Butoxycarbonyl-CTK(DOTA)Y[Phe(4-CN)][Pro(cis-4-F)][Hyp]I[Nva]C-NH2; disulfide 1-10), the pIC50 in assay [1] was at least 8.00. Moreover, in assay [2] (single cycle kinetics), the Kd is below 0.00158 µM.

`CC[C@H](C)[C@@H]1NC(=O)[C@@H](CCCCNC(=O)CN2CCN(CC(=O)O)CCN(CC(=O)O)CCN(CC(=O)O)CC2)NC(=O)[C@@H]2CCCN2C(=O)[C@H](Cc2ccccc2)NC(=O)[C@H](Cc2ccc(O)cc2)NC(=O)[C@H](CCC(N)=O)NC(=O)[C@H](CCCNC(=N)N)NC(=O)[C@@H](NC(=O)CCC(C)C)CSSC[C@@H](C(N)=O)NC(=O)[C@H](CC(C)C)NC1=O` [UPAR-367, iHex-[Cys-Arg-Gln-Tyr-Phe-Pro-lys(DOTA)-Ile-Leu-Cys]-NH2] ({Pentanoyl(4-Me)}-CRQYFP[dK](DOTA)ILC-NH2; disulfide 1-10) had a pIC50 in assay [1] of at least 8.00. Further, in assay [2] (single cycle kinetics), the Kd is 0.01 to 0.1 µM.

Regarding `CCCCC(=O)N[C@H]1CSSC[C@@H](C(N)=O)NC(=O)[C@H](CCC)NC(=O)[C@H](c2ccccc2)NC(=O)[C@@H]2C[C@@H](O)CN2C(=O)[C@@H]2CCCN2C(=O)[C@H](Cc2ccccc2)NC(=O)[C@H](Cc2ccc(O)cc2)NC(=O)[C@H](CCC(N)=O)NC(=O)[C@H](CCCNC(=N)N)NC1=O` [UPAR-437, Pent-[Cys-Arg-Gln-Tyr-Phe-Pro-Hyp-Phg-Nva-Cys]-NHz] (Pentanoyl-CRQYFP[Hyp][Phg][Nva]C-NH2; disulfide 1-10), in assay [1], the negative logarithm of the IC50 (pIC50) was at least 8.00. For the same compound, in assay [2] (single cycle kinetics), the Kd is below 0.00158 µM.

In turn, `CCC[C@@H]1NC(=O)[C@H]([C@@H](C)CC)NC(=O)[C@@H]2C[C@@H](O)CN2C(=O)[C@@H]2CCCN2C(=O)[C@H](Cc2ccccc2)NC(=O)[C@H](Cc2ccc(O)cc2)NC(=O)[C@H](CCC(N)=O)NC(=O)[C@H](CCCNC(=N)N)NC(=O)[C@@H](NC(=O)[C@](C)(CC(C)C)NC(C)=O)CSSC[C@@H](C(N)=O)NC1=O` [UPAR-485, Ac-Aml-[Cys-Arg-Gln-Tyr-Phe-Pro-Hyp-Ile-Nva-Cys]-NH2] (Ac-[αMeL]CRQYFP[Hyp]I[Nva]C-NH2; disulfide 2-11) gave a negative logarithm of the IC50 (pIC50) in assay [1] of at least 8.00. The Kd in assay [2] (single cycle kinetics) was below 0.00158 µM.

In assay [1], `CC[C@H](C)[C@@H]1NC(=O)[C@@H](C)NC(=O)[C@@H]2CCCN2C(=O)[C@H](Cc2ccccc2)NC(=O)[C@H](Cc2ccc(O)cc2)NC(=O)[C@H](CCC(N)=O)NC(=O)[C@H](CCCNC(=N)N)NC(=O)[C@@H](NC(=O)[C@H](CC(C)C)NC(=O)CCCCCNC(=O)CN2CCN(CC(=O)O)CCN(CC(=O)O)CCN(CC(=O)O)CC2)CSSC[C@@H](C(N)=O)NC(=O)[C@H](CC(C)C)NC1=O` [UPAR-291, DOTA-Ahx-Leu-[Cys-Arg-Gln-Tyr-Phe-Pro-ala-Ile-Leu-Cys]-NH2] ({DOTA-Ahx}-LCRQYFP[dA]ILC-NH2; disulfide 2-11) showed a pIC50 of at least 8.00. Also, the Kd in assay [2] is below 0.00158 µM.

Consider `CC[C@H](C)[C@@H]1NC(=O)[C@@H](C)NC(=O)[C@@H]2CCCN2C(=O)[C@H](Cc2ccccc2)NC(=O)[C@H](Cc2ccc(O)c(Cl)c2)NC(=O)[C@H](CCC(N)=O)NC(=O)[C@H](CCCNC(N)=O)NC(=O)[C@@H](NC(=O)CCC(C)C)CSSC[C@@H](C(N)=O)NC(=O)[C@H](CC(C)C)NC1=O` [UPAR-188, iHex-[Cys-Cit-Gln-Mcy-Phe-Pro-ala-Ile-Leu-Cys]-NH2] ({Pentanoyl(4-Me)}-C[Cit]Q[Tyr(3-Cl)]FP[dA]ILC-NH2; disulfide 1-10), for which the pIC50 in assay [1] was at least 8.00. Also, the Kd in assay [2] was below 0.00158 µM.

In assay [1], `CCCCOC(=O)N[C@H]1CSSC[C@@H](C(N)=O)NC(=O)[C@H](CCO)NC(=O)[C@H]([C@@H](C)CC)NC(=O)[C@@H]2C[C@@H](O)CN2C(=O)[C@@H]2C[C@H](F)CN2C(=O)[C@H](Cc2ccccc2)NC(=O)[C@H](Cc2ccc(O)cc2)NC(=O)[C@H](CCCCNC(=O)CN2CCN(CC(=O)O)CCN(CC(=O)O)CCN(CC(=O)O)CC2)NC(=O)[C@H]([C@@H](C)O)NC1=O` [UPAR-368, Butoc-[Cys-Thr-Lys(DOTA)-Tyr-Phe-4Cfp-Hyp-Ile-Hse-Cys]-NH2] (Butoxycarbonyl-CTK(DOTA)YF[Pro(cis-4-F)][Hyp]I[hSer]C-NH2; disulfide 1-10) showed a pIC50 of at least 8.00. The Kd in assay [2] (single cycle kinetics) was 0.01 to 0.1 µM.

The compound `CC[C@H](C)[C@@H]1NC(=O)[C@@H]2C[C@@H](N)CN2C(=O)[C@@H]2CCCN2C(=O)[C@H](Cc2ccccc2)NC(=O)[C@H](Cc2ccc(O)cc2)NC(=O)[C@H](CCC(N)=O)NC(=O)[C@H](CCCNC(N)=O)NC(=O)[C@@H](NC(=O)CCC(C)C)CSSC[C@@H](C(N)=O)NC(=O)[C@H](CC(C)C)NC1=O` [UPAR-295, iHex-[Cys-Cit-Gln-Tyr-Phe-Pro-Tap-Ile-Leu-Cys]-NH2] ({Pentanoyl(4-Me)}-C[Cit]QYFP[Pro(4R-NH2)]ILC-NH2; disulfide 1-10) had a pIC50 in assay [1] of at least 8.00. For the same compound, in assay [2], the Kd was below 0.00158 µM.

As to `CC[C@H](C)[C@@H]1NC(=O)[C@@H](C)NC(=O)[C@@H]2CCCN2C(=O)[C@H](Cc2ccccc2)NC(=O)[C@H](Cc2ccc(O)cc2)NC(=O)[C@H](CCCCNC(=O)CN2CCN(CC(=O)O)CCN(CC(=O)O)CCN(CC(=O)O)CC2)NC(=O)[C@H](CC(=O)O)NC(=O)[C@@H](NC(=O)[C@H](CC(C)C)NC(=O)[C@H](CC(=O)O)NC(C)=O)CSSC[C@@H](C(N)=O)NC(=O)[C@H](CC(C)C)NC1=O` [UPAR-432, Ac-Asp-Leu-[Cys-Asp-Lys(DOTA)-Tyr-Phe-Pro-ala-Ile-Leu-Cys]-NH2] (Ac-DLCDK(DOTA)YFP[dA]ILC-NH2; disulfide 3-12), the pIC50 in assay [1] was 7.50 to 7.90. Besides, the Kd in assay [2] (single cycle kinetics) is 0.01 to 0.1 µM.

`CCCCC(=O)N[C@H]1CSSC[C@@H](C(N)=O)NC(=O)[C@H](CCC)NC(=O)[C@H]([C@@H](C)CC)NC(=O)[C@@H]2C[C@@H](O)CN2C(=O)[C@@H]2C[C@H](O)CN2C(=O)[C@H](Cc2ccccc2)NC(=O)[C@H](Cc2ccc(O)cc2)NC(=O)[C@H](CCCCNC(=O)CN2CCN(CC(=O)O)CCN(CC(=O)O)CCN(CC(=O)O)CC2)NC(=O)[C@H]([C@@H](C)O)NC1=O` [UPAR-388, Pent-[Cys-Thr-Lys(DOTA)-Tyr-Phe-Chy-Hyp-Ile-Nva-Cys]-NH2] (Pentanoyl-CTK(DOTA)YF[cisHyp][Hyp]I[Nva]C-NH2; disulfide 1-10) showed a pIC50 in assay [1] of at least 8.00. The Kd in assay [2] (single cycle kinetics) is 0.00158 to 0.01 µM.
